Reference: patent publication US7825139B2, “Compounds and methods for selective inhibition of dipeptidyl peptidase-IV” (Forest Laboratories Holdings Limited (BM), priority 2005, dated 2010)

How the values were obtained:
Zucker Obese Fatty rats = experiment: Toxicity in rats, oral dosing; assay type: in vivo, rat; details: 5-10 mg/kg, 4-24 hrs post-dose, all Zucker Obese Fatty rats tested
Excerpt: Toxicity in Rats: The Zucker Diabetic Fatty (ZDF) rat model can be used to investigate the effects of the compounds of the invention on both the treatment and prevention of diabetes as rats of this sub-strain are initially pre-diabetic although they develop severe type 2 diabetes characterized by increased HbAl c levels over a period of 6 weeks. The same strain can be used to predict the clinical efficacy of other anti-diabetic drug types. For example, the model predicts the potency and limited clinical efficacy of thiazolidinedione insulin sensitizer compounds. The experimental protocol requires p.o. (oral gavage) administration of either vehicle or test article at indicated doses either QD or BID using a gastric feeding needle with a ball tip, without anesthesia, using hand restraint to adult rats which have been fasted overnight. Animals are monitored for clinical signs at 1, 2, 4 and 8 hour time intervals following the treatment regimen. Whole blood samples (to a maximum level of 10% of the total blood volume every 2 weeks) were collected from the animals from the retro-orbital sinus in accordance with the guidelines of the IACUC committee.
The expected therapeutic dose level could not be reached for the comparative compounds before acute toxicity was observed.

DPP-IX = biological target: T1, DPP-IX (Homo sapiens, UniProt Q86TI2); experiment: DPP-IX IC50 assay (Ala-Pro AMC); assay type: biochemical
T1 construct: The full length cDNAs for human DPP-VII, DPP-VIII, DPP-IX, and FAP were obtained from Open Biosystems; 6xHis (C); made in house
Experimental: Materials. S9 insect cells and Sf-900 II SFM media were from Invitrogen. Anti-FLAG M2 immunoaffinity gel was from Sigma. Gly-Pro-AMC, Lys-Pro AMC, and Ala-Pro AMC were from Enzyme Systems. IC50 calculations were performed by non-linear regression analysis using Prism software (GraphPad). Preparation of DPP-VII, DPP-VIII, DPP-IX, and FAP baculovirus constructs. The full length cDNAs for human DPP-VII, DPP-VIII, DPP-IX, and FAP were obtained from Open Biosystems. The cDNAs were cloned into the pFastBac vector with the addition of an N-terminal FLAG tag on DPP-VII, C-terminal 6xHis tags on DPP-VIII and DPP-IX, and an N-terminal 6xHis tag on FAP (Sun 2002, Qi 2003, and Chen 2004). Baculovirus was prepared using the Bac-to-Bac Baculovirus Expression System (Invitrogen). The cDNAs in the final baculovirus constructs were sequence verified. Baculovirus expression. S9 cells were grown to mid log phase at 27C with shaking at 125 RPM and then adjusted to 2×10E6/ml just prior to baculovirus infection. Infection with DPP-VII, DPP-VIII, DPP-IX, and FAP baculoviral constructs were all performed at an MOI of 4. […] Recombinant DPPs were diluted in reaction buffer to give fluorescence values of 5000-20000 counts in the “enzyme only wells” 20 min after addition of substrate at 27° C. […] Fluorescence in each well was measured at settings of 380/460 nm. […]

dogs = experiment: Toxicity in dogs, escalated oral dose study; assay type: in vivo; details: at 2.0 mg/kg, within 2-4 hours of dosing
Experimental: The 2.0 mg/kg dose of compound 19 correlated with the time above the DPP-VIII IC90 but not with the time above DPP-IX IC90. By comparison, a previously known selective inhibitor (compound 10 in U.S. patent application Ser. […]

T1 sequence (Q86TI2 whole entry): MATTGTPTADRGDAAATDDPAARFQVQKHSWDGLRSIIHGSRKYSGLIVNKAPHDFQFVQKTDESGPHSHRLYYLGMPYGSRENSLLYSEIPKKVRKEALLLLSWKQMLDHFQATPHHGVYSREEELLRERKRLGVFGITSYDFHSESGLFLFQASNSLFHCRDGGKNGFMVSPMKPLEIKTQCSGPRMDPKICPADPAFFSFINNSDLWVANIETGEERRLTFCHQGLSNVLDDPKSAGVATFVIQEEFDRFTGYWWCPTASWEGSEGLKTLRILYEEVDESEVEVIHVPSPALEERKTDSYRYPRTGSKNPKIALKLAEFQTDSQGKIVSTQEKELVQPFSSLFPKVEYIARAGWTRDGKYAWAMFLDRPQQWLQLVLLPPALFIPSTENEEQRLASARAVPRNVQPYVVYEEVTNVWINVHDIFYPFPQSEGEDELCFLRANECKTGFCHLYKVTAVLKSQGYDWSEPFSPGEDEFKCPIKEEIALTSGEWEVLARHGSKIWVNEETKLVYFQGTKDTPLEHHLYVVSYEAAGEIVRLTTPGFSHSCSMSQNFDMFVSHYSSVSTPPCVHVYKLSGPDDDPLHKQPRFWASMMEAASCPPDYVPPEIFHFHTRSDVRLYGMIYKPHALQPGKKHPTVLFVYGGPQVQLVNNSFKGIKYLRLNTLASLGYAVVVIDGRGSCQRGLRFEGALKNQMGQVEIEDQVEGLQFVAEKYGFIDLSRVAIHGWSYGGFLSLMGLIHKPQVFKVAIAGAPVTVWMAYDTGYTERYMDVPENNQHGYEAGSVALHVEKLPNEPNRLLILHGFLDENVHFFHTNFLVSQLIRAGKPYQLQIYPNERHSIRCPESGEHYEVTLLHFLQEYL

O=C(CNC1CCCC1)N1CCC[C@H]1B(O)O [Compound 19]
acute toxicity in rats (Zucker Obese Fatty rats): acute toxicity (death)
inhibition of DPP-IX (in words) (DPP-IX): potent inhibitor
toxicity in dogs (dogs): severe emesis and diarrhea
